How the values were obtained:
Format in all cases: in vivo
Matricaria inodora = assay: Post-emergence herbicidal action; details: application rate 20 g/ha, rated visually after about 3 weeks vs untreated controls
Description: (§1) a. Post-Emergence Herbicidal Action and Crop Plant Compatibility Seeds of monocotyledonous and dicotyledonous weeds and crop plants were placed in sandy loam in plastic or wood-fiber pots, covered with soil and cultivated in a greenhouse under controlled growth conditions. 2 to 3 weeks after sowing, the test plants were treated at the one-leaf stage. The compounds of the invention, formulated in the form of wettable powders (WP) or as emulsion concentrates (EC), were then sprayed onto the green parts of the plants as aqueous suspension or emulsion with addition of 0.5% additive at a water application rate of 600 l/ha (converted). After the test plants had been kept in the greenhouse under optimum growth conditions for about 3 weeks, the activity of the preparations was rated visually in comparison to untreated controls. For example, 100% activity=the plants have died, 0% activity=like control plants. Tables A1 to A15 below show the effects of selected compounds of the general formula (I) according to Tables I.1 to I.36 on various harmful plants and at an application rate corresponding to 20 g/ha and less, which were obtained by the experimental procedure mentioned above.

Setaria viridis = assay: Post-emergence herbicidal action; details: application rate 20 g/ha, rated visually after about 3 weeks vs untreated controls
Description: as §1

Pharbitis purpurea = assay: Post-emergence herbicidal action; details: application rate 20 g/ha, rated visually after about 3 weeks vs untreated controls
Description: as §1

Lolium rigidum = assay: Post-emergence herbicidal action; details: application rate 20 g/ha, rated visually after about 3 weeks vs untreated controls
Description: as §1

Amaranthus retroflexus = assay: Post-emergence herbicidal action; details: application rate 20 g/ha, rated visually after about 3 weeks vs untreated controls
Description: as §1

Abutilon theophrasti = assay: Post-emergence herbicidal action; details: application rate 20 g/ha, rated visually after about 3 weeks vs untreated controls
Description: as §1

Viola tricolor = assay: Post-emergence herbicidal action; details: application rate 20 g/ha
Description: as §1

Polygonum convolvulus = assay: Post-emergence herbicidal action; details: application rate 20 g/ha
Description: as §1

Avena fatua = assay: Post-emergence herbicidal action; details: application rate 20 g/ha, rated visually after about 3 weeks vs untreated controls
Description: as §1

Echinochloa crus-galli = assay: Post-emergence herbicidal action; details: application rate 20 g/ha, rated visually after about 3 weeks vs untreated controls
Description: as §1

Veronica persica = assay: Post-emergence herbicidal action; details: application rate 20 g/ha
Description: as §1

Alopecurus myosuroides = assay: Post-emergence herbicidal action; details: application rate 20 g/ha, rated visually after about 3 weeks vs untreated controls
Description: as §1

Digitaria sanguinalis = assay: Post-emergence herbicidal action; details: application rate 20 g/ha, rated visually after about 3 weeks vs untreated controls
Description: as §1

Oryza sativa = assay: Post-emergence crop plant compatibility
Description: a. Post-Emergence Herbicidal Action and Crop Plant Compatibility
as §1, with “Seeds” for “a. Post-Emergence Herbicidal Action and Crop Plant Compatibility Seeds”, “plants.” for “plants. Tables A1 to A15 below show the effects of selected compounds of the general formula (I) according to Tables I.1 to I.36 on various harmful plants and at an application rate corresponding to 20 g/ha and less, which were obtained by the experimental procedure mentioned above.”
Tables A16 to A19 below show the crop plant compatibilities of selected compounds of the general formula (I) according to Tables I.1 to I.36 at an application rate corresponding to 5 g/ha or 20 g/ha, which were obtained in experiments according to the experimental procedure mentioned above. Here, the observed effects on selected crop plants are stated in comparison to the untreated controls (values in %).

Row | Compound | Matricaria inodora (efficacy in %) (Matricaria inodora) [%] | Setaria viridis (efficacy in %) (Setaria viridis) [%] | Pharbitis purpurea (efficacy in %) (Pharbitis purpurea) [%] | Lolium rigidum (efficacy in %) (Lolium rigidum) [%] | Amaranthus retroflexus (efficacy in %) (Amaranthus retroflexus) [%] | Abutilon theophrasti (efficacy in %) (Abutilon theophrasti) [%] | Viola tricolor (efficacy in %) (Viola tricolor) [%] | Polygonum convolvulus (efficacy in %) (Polygonum convolvulus) [%] | Avena fatua (efficacy in %) (Avena fatua) [%] | Echinochloa crus-galli (efficacy in %) (Echinochloa crus-galli) [%] | Veronica persica (efficacy in %) (Veronica persica) [%] | Alopecurus myosuroides (efficacy in %) (Alopecurus myosuroides) [%] | Digitaria sanguinalis (efficacy in %) (Digitaria sanguinalis) [%] | Oryza sativa (efficacy in %) (Oryza sativa; application rate 5 g/ha) [%] | Oryza sativa (efficacy in %) (Oryza sativa; application rate 20 g/ha) [%]
1 | Cn1c(C(F)(F)F)cc(=O)n(-c2cc(Oc3cccnc3OCC(=O)OC3COC3)c(Br)cc2F)c1=O [I.16-115] | 100 | 100 | 100 | 100 | 100 | 100 | 100 | 100 | 80 | 100 | 100 | 100 | 100 | 20 | –
2 | Cn1c(C(F)(F)F)cc(=O)n(-c2cc(Sc3cccnc3OCC(=O)OCc3ccccn3)c(Cl)cc2F)c1=O [I.1-286] | 100 | – | 100 | 80 | 100 | 100 | 100 | – | 80 | 100 | 100 | 100 | – | 0 | –
3 | CCOC(COC(=O)COc1ncccc1Oc1cc(-n2c(=O)cc(C(F)(F)F)n(C)c2=O)c(F)cc1Br)OCC [I.16-422] | 100 | 100 | 100 | 90 | 100 | 100 | 100 | 100 | 100 | 100 | 100 | 100 | 100 | 20 | –
4 | Cn1c(C(F)(F)F)cc(=O)n(-c2cc(Sc3cccnc3OCC(=O)OCC#N)c(Cl)cc2F)c1=O [I.1-176] | 100 | 100 | 100 | 80 | 100 | 100 | 100 | – | 90 | 100 | 100 | 100 | 100 | 20 | –
5 | CCS(=O)(=O)NCCOC(=O)COc1ncccc1Oc1cc(-n2c(=O)cc(C(F)(F)F)n(C)c2=O)c(F)cc1Br [I.16-421] | 100 | 100 | 100 | 90 | 100 | 100 | 100 | 100 | 100 | 100 | 100 | 100 | 100 | 20 | –
6 | COCCOCCOC(=O)COc1ncc(F)cc1Sc1cc(-n2c(=O)cc(C(F)(F)F)n(C)c2=O)c(F)cc1Cl [I.31-23, 2-(2-Methoxyethoxy)ethyl {[3-({5-[3-methyl-2,6-dioxo-4-(trifluoromethyl)-3,6-dihydropyrimidin-1(2H)-yl]-2-chloro-4-fluorophenyl}sulfanyl)-5-fluoropyridin-2-yl]oxy}acetate] | 100 | 100 | 100 | – | 100 | 100 | 100 | – | – | 100 | 100 | 90 | 100 | – | 20
